Source: patent publication US20250268873A1, “COMBINATION OF DUAL ATM AND DNA-PK INHIBITORS AND IMMUNOTHERAPEUTIC AGENTS FOR USE IN CANCER THERAPY” (XRAD THERAPEUTICS, INC., priority 2021, published 2025)

Tested on: TBK1
Test: Immunoblot of TBK1 phosphorylation in HCT116 cells
Format: cell-based, human
Conditions: HCT116 p53 wild-type and p53−/− cells; 1 μM single agents, combination 0.5 or 1 micromolar each
Source text: Antibodies recognizing phosphorylated/activated ATM (S1981, #ab81292) and DNA-PKcs (S2056, #ab18192) were purchased from Abcam Biotechnology (Cambridge, MA). Antibodies to ATM (#A1106) and DNA-PKcs (#ab1832) were from Sigma and Abcam, respectively. Phospho-KAP1 (S824, #A300-767A) and KAP1 (A700-014) antibodies were from Bethyl Labs (Montgomery, TX). Phospho-TBK1 (#5483), cGAS (#15102), and pSTING (S366, #19781S) antibodies were from Cell Signaling Technology (CST) (Danvers, MA). STING (PA5-23381) antibodies were from ThermoFisher Scientific (Waltham, MA), and actin (#A5316) antibodies were from Sigma. All antibodies were diluted 1:1000 with the exception of actin which was diluted 1:3000 in 1×TBST (1×TBS-10×TBS, (Corning, 46-012-CM), 0.05% Tween-20 (P7949) Sigma and 1% BSA. Secondary antibodies used were (a) Li-Cor method-Goat anti-Rabbit (926-3221) and Goat anti-Mouse (926-68020) Li-Cor (b) ECL method: Anti-rabbit IgG, HRP-linked (#7074S), CST.
Cells were pretreated with Compound 569 at 20, 100, 500, or 1000 nM or DMSO for 30 min and then irradiated with 0 or 10 Gy (XRAD 160, Precision X Ray) as shown in FIG. 1. In FIG. 3, cells were pretreated with Compound 569 at 1 μM, ATMi (AZD0156) at 1 μM, DNA-PKi (peposertib) at 1 μM as single agents or DMSO or with ATMi and DNA-PKi in combination at 0.5 micromolar each or at 1 micromolar each for 30 min and then irradiated with 0 or 10 Gy (XRAD 160, Precision X Ray) as shown in FIG. 1. One hour after IR, cells were lysed in RIPA buffer ([…], pH 8.0, 150 mM NaCl, 0.1% SDS, 0.5% sodium deoxycholate, 1% IGEPAL® CA-630 (Sigma, 18896) for 20 min at 4° C. in the presence of protease and phosphatase inhibitor cocktails (Roche, #04693159001 & #04906837001). Cell lysates were centrifuged at 13,200 g for 10 min at 4° C. and supernatants were analyzed for protein content using BCA assay (Pierce™ BCA Protein Assay Kit, cat #23227, ThermoFisher Waltham, MA 02451) and equal amounts of protein/lane were used for subsequent immunoblot analyses. Proteins were denatured by adding NuPAGE LSD Sample Buffer [4×] […]

Structure (SMILES)	phosphorylation of TBK1
CN(C)CCCOc1ccc(-c2ccc3ncc4c(c3c2)n(C2CCOCC2)c(=O)n4C)cn1 [AZD0156]	induction of phosphorylation of TBK1
COc1ccc([C@@H](O)c2cc(-c3ncnc4cc(N5CCOCC5)ccc34)c(F)cc2Cl)nn1 [peposertib]	induction of phosphorylation of TBK1
